Read-outs that look alike come from different tables or passages of the source.
Columns and labels:
[1] = target: T1, human AR (Homo sapiens, UniProt P10275); experiment: Co-transfection assay, AR agonist activity (CV-1 cells, MTV-LUC reporter); format: cell-based; settings: CV-1 cells; for EC50: agonist potency EC50; for AR Agonist CV-1 Cells Efficacy (%): percent maximal response relative to reference agonist DHT
T1 sequence (P10275 1-920): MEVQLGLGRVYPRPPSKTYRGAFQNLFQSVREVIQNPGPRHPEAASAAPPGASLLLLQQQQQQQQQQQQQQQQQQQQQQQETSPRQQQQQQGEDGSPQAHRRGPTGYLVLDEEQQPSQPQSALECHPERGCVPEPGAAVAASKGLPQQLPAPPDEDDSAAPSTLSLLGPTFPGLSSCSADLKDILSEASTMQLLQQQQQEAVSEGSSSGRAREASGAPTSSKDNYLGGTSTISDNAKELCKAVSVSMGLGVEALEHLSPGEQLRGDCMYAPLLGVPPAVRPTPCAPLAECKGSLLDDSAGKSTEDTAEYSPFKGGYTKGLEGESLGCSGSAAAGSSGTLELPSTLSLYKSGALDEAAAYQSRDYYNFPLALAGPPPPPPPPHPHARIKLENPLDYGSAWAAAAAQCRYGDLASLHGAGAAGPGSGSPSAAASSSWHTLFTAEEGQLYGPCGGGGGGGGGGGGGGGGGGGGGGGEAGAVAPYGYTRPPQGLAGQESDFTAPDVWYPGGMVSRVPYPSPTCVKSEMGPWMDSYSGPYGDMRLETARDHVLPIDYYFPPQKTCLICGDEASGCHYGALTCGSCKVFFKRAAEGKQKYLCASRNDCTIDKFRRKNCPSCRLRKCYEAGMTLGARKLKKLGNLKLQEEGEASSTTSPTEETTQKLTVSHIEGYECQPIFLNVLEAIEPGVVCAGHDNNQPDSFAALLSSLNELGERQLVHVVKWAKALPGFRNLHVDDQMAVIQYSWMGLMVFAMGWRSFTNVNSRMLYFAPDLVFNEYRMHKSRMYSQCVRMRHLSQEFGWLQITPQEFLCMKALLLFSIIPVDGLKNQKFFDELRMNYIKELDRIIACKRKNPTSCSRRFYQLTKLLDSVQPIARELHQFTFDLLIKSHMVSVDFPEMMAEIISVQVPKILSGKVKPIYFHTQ

[2] = target: T1, human AR; experiment: Co-transfection assay, AR antagonist activity (CV-1 cells, in presence of DHT); format: cell-based; settings: for AR Antagonist CV-1 Cells Efficacy (%): percent maximal inhibition, DHT at its EC50; for IC50: read-out: AR Antagonist CV-1 Cells Potency
[3] = target: T1, human AR; experiment: AR whole cell competitive binding assay (COS-1 cells, 3H-DHT); settings: 1 nM 3H-DHT, Cheng-Prusoff
Experimental: AR Binding: For the whole cell binding assay, COS-1 cells in 96-well microtiter plates containing DMEM-10% FBS were transfected as described above with the following plasmid DNA: pRShAR (2 ng/well), pRS-β-Gal (50 ng/well) and pGEM (48 ngcwell). Six hours after transfection, media was removed, the cells were washed with PBS and fresh media was added. The next day, the media was changed to DMEM-serum free to remove any endogenous ligand that might be complexed with the receptor in the cells.
Three replicates were used for each sample. […] The remaining media was removed, the cells were washed three times with PBS to remove unbound ligand, and cells were lysed with a Triton X-100-based buffer.
For the saturation analyses, the difference between the total binding and the nonspecific binding, normalized by the β-Gal rate, was defined as specific binding. […] The Ki values were determined by application of the Cheng-Prusoff equation to the IC50 values, where:
After correcting for non-specific binding, IC50 values were determined. […] The IC50 value was determined graphically from a log-logit plot of the data. The Ki values were determined by application of the Cheng-Prusoff equivuation to the IC50 values, the labeled ligand concentration and the Kd of the labeled ligand.

Compound | EC50 [1] [nM] | AR Agonist CV-1 Cells Efficacy (%) [1] [%] | AR Antagonist CV-1 Cells Efficacy (%) ([2]; CV-1 cells) | IC50 [2] [nM] | Ki [3] [nM] | IC50 ([2]; CV-1 cells, antagonist potency IC50, DHT at its EC50) [nM]
CCN(CC(C)C)c1ccc2[nH]c(=O)cc(C(F)(F)F)c2c1 [Compound 241, 6-(N-Ethyl-N-isobutyl)amino-4-trifluoromethyl-2(1H)-quinolinone] | 2.9 | 73 | na (na = not active (i.e. efficacy of <20 and potency of >10,000)) | > 10000 | 30 | 
CC1OC(=O)Nc2ccc(C3=CCCCC3)cc21 (racemic) [Compound 698, (±)-6-(1-Cyclohexenyl)-1,4-dihydro-4-methyl-1,3-benzo[d]oxazin-2-one] | > 10000 |  | 84% | 17 | 32 | 
C=CCN(CC=C)c1ccc2[nH]c(=O)cc(C(F)(F)F)c2c1 [Compound 280, 6-Diallylamino-4-trifluoromethyl-2(1H)-quinolinone] | 2.2 | 78 | na (na = not active (i.e. efficacy of <20 and potency of >10,000)) | > 10000 | 2.4 | 
C[C@@H]1CC[C@H](C)N1c1ccc2[nH]c(=O)cc(C(F)(F)F)c2c1 [Compound 328, 6-(2,5-cis-Dimethyl-1-pyrrolidino)-4-trifluoromethyl-2(1H)-quinolinone] | 1.7 | 93 | na (na = not active (i.e. efficacy of <20 and potency of >10,000)) | > 10000 | 48 | 
CC(C)c1ccc2c(c1)CN(C)C(=O)N2 [Compound 721, 3,4-Dihydro-6-isopropyl-3-methyl-2(1H)-quinazolinone] | > 10000 |  | 85% | 32 | > 1000 | 
O=c1cc(C(F)(F)F)c2cc(N(CC(F)(F)Cl)CC(F)(F)Cl)ccc2[nH]1 [Compound 225, 6-(bis-2-Chloro-2,2-difluoroethyl)amino-4-trifluoromethyl-2(1H)-quinolinone] | 0.4 | 90 | na (na = not active (i.e. efficacy of <20 and potency of >10,000)) | > 10000 | 0.9 | 
O=c1cc(C(F)(F)F)c2cc(N(CC(F)(F)C(F)(F)F)CC(F)(F)C(F)(F)F)ccc2[nH]1 [Compound 224, 6-(bis-2,2,3,3,3-Pentafluoropropyl)amino-4-trifluoromethyl-2(1H)-quinolinone] | 41 | 108 | na (na = not active (i.e. efficacy of <20 and potency of >10,000)) | > 10000 | 206 | 
CC1CN(c2ccc3[nH]c(=O)cc(C(F)(F)F)c3c2)C(C(F)(F)F)O1 (racemic) [Compound 351, (±)-6-(2-Trifluoromethyl-5-cis-methyl-1-oxazolidino)-4-trifluoromethyl-2(1H)-quinolinone] | 23 | 79 | na (na = not active (i.e. efficacy of <20 and potency of >10,000)) |  | 31 | > 10000
O=C1C=C(c2ccc3[nH]c(=O)cc(C(F)(F)F)c3c2)CCC1 [Compound 655, 6-(3-Oxo-1-)cyclohexenyl-4-trifluoromethyl-2(1H)-quinolinone] | > 10000 |  | 70% | 70 | > 1000 | 
CC1(C)CC(=O)Nc2ccc(N(CC(F)(F)F)CC(F)(F)F)cc21 [Compound 501, 3,4-Dihydro-4,4-dimethyl-6-(bis-N,N-2,2,2-trifluoroethyl)amino-2(1H)-quino-linone] | 5.8 | 110 | na (na = not active (i.e. efficacy of <20 and potency of >10,000)) | > 10000 | 16 | 
Nc1cc2[nH]c(=O)cc(C(F)(F)F)c2cc1OCC(F)(F)F [Compound 571, 7-Amino-6-(2,2,2-trifluoroethoxy)-4-trifluoromethyl-2(1H)-quinolinone] | > 10000 |  | 69% | 14 | 71 | 
CCC[C@@H]1CC[C@H](CCC)N1c1ccc2[nH]c(=O)cc(C(F)(F)F)c2c1 [Compound 366, 6-(2,5-cis-Dipropyl-1-pyrrolidino)-4-trifluoromethyl-2(1H)-quinolinone] | > 10000 |  | 85% | 31 | > 1000 | 
O=c1cc(C(F)(F)F)c2cc(N3CCCc4ccccc43)ccc2[nH]1 [Compound 348, 6-(1-Tetrahydroquinolino)-4-trifluoromethyl-2(1H)-quinolinone] | > 10000 |  | 81% | 24 | 62 | 
O=c1cc(C(F)(F)F)c2cc(-c3ccc(Cl)cc3Cl)ccc2[nH]1 [Compound 753, 4-Trifluoromethyl-6-(2,4-dichlorophenyl)-2(1H)-quinolinone] | > 10000 |  | 76% | 51 | 74 | 
O=c1cc(C(F)(F)F)c2cc(N(Cc3ccccc3)Cc3ccccc3)ccc2[nH]1 [Compound 272, 6-(bis-N,N-Benzyl)amino-4-trifluoromethyl-2(1H)-quinolinone] | > 10000 |  | 67% | 7 | > 1000 | 
O=c1cc(C(F)(F)F)c2cc(-c3cccc(F)c3)ccc2[nH]1 [Compound 741, 4-Trifluoromethyl-6-(3-fluorophenyl)-2(1H)-quinolinone] | > 10000 |  | 92% | 27 | 322 | 
O=c1cc(C(F)(F)F)c2cc(N3CCCCC3CO)ccc2[nH]1 (racemic) [Compound 331, (±)-6-(2-Hydroxymethyl-1-piperidino)-4-trifluoromethyl-2(1H)-quinolinone] | 21 | 44 | 42% | 5.7 | > 1000 | 
COC[C@H]1CCCN1c1ccc2[nH]c(=O)cc(C(F)(F)F)c2c1 [Compound 423, (R)-6-(2-Methoxymethyl-1-pyrrolidino)-4-trifluoromethyl-2(1H)-quinolinone] | 86 | 57 | na (na = not active (i.e. efficacy of <20 and potency of >10,000)) | > 10000 | 22 | 
CCCN(CC)c1ccc2[nH]c(=O)cc(C(F)(F)F)c2c1 [Compound 238, 6-(N-Ethyl-N-propyl)amino-4-trifluoromethyl-2(1H)-quinolinone] | 5.3 | 77 | na (na = not active (i.e. efficacy of <20 and potency of >10,000)) | > 10000 | 17 | 
Nc1cc2[nH]c(=O)cc(C(F)(F)F)c2cc1C1CCCCC1 [Compound 582, 7-Amino-6-cyclohexyl-4-trifluoromethyl-2(1H)-quinolinone] | > 10000 |  | 92% | 26 | 43 | 
C=CC1CCCCN1c1ccc2[nH]c(=O)cc(C(F)(F)F)c2c1 (racemic) [Compound 444, (±)-6-(2-Vinyl-1-piperidino)-4-trifluoromethyl-2(1H)-quinolinone] | 73 | 83 | na (na = not active (i.e. efficacy of <20 and potency of >10,000)) | > 10000 | 26 | 
CC(C)Nc1ccc2c(C(F)(F)F)c(F)c(=O)[nH]c2c1 [Compound 535, 3-Fluoro-7-isopropylamino-4-trifluoromethyl-2(1H)-quinolinone] | > 10000 |  | 76% | 60 | > 1000 | 
CCCCC1(O)C=C(c2ccc3c(c2)C(C)(C)OC(=O)N3)CCC1 (racemic) [Compound 694, (±)-6-(3-Butyl-3-hydroxy-1-)cyclohexenyl-1,4-dihydro-4,4-dimethyl-1,3-benzo[d]oxazin-2-one] | 935 | 25 | 90% | 64 | > 1000 | 
CCCC1CCC(CCC)N1c1ccc2[nH]c(=O)cc(C(F)(F)F)c2c1 (racemic) [Compound 365, (±)-6-(2,5-trans-Dipropyl-1-pyrrolidino)-4-trifluoromethyl-2(1H)-quinolinone] | 55 | 36 | 43% | 14 | 124 | 

Reference: patent US7696246B2 (Ligand Pharmaceuticals Incorporated, priority 1999, dated 2010)
